20 molecules from US20250352550A1, “SUBSTITUTED FUROPYRIDINES FOR THERAPEUTIC USE” (MASARYKOVA UNIVERZITA, priority 2022, published 2025) can be followed below.

As a reminder, the IC50 is the midpoint of a concentration-inhibition curve. Read a low IC50 as higher potency.

The structures appear in SMILES notation.

Holding throughout (type): biochemical
Assay [1] addresses T1, KHS/MAP4K5 (Homo sapiens, UniProt Q9Y4K4).
T1 construct: purchased Reaction Biology
In words: HotSpot radiometric kinase assay (Reaction Biology), KHS/MAP4K5. The following applies: 1.5 nM kinase, substrate MBP 20 μM, 33P-ATP, 120 minutes at room temperature. The procedure:
(§1) The compounds were profiled in the HotSpot radiometric assays (Reaction Biology).
(§2) Briefly, • 1. Substrate indicated in Table 1 was dissolved in freshly prepared reaction buffer (20 mM HEPES (pH 7.5), 10 mM MgCl2, 1 mM EGTA, 0.01% Brij35, 0.02 mg/ml BSA, 0.1 mM Na3VO4, 2 mM DTT, 1% DMSO) at the concentration indicated in Table 1. • 2. Corresponding kinase (concentration indicated in Table 1) was added and the mixture was gently mixed. • 3. Tested compound dissolved in DMSO was added into the kinase reaction mixture. • 4. ^33P-ATP (specific activity 0.01 μCi/μL final) was added into the reaction mixture to initiate the reaction. • 5. The kinase reaction was incubated for 120 minutes at room temperature. • 6. Reaction mixture was spotted onto P81 ion exchange paper (Whatman K 3698-915). • 7. The filters were extensively washed with 0.754 phosphoric acid. • 7. The radioactive phosphorylated substrate remaining on the filter paper was measured.
(§3) Kinase activity data were expressed as the percent remaining kinase activity in tested samples compared to the vehicle (DMSO) reactions. IC50 values and curve fits were obtained using Prism4 Software (GraphPad).
Table 2 summarizes the inhibitory activities of indicated compounds tested in the in vitro kinase assays described above.

The target of assay [2] is T2, DDR1 (Homo sapiens, UniProt Q08345).
T2 construct: purchased Reaction Biology
Nature of the assay: HotSpot radiometric kinase assay (Reaction Biology), DDR1. Particulars: 200 nM kinase, substrate IRS1tide 20 μM, 33P-ATP, 120 minutes at room temperature. The procedure: as §1
as §2, with “Reaction mixture was spotted onto P81 ion exchange paper (Whatman K 3698-915). • 7. The filters were extensively washed with 0.754 phosphoric acid. • 7.” left out
as §3

Assay [3] concerns the target T3, FLT3 (Homo sapiens, UniProt P36888).
T3 construct: purchased Reaction Biology
T3 sequence (P36888 27-993): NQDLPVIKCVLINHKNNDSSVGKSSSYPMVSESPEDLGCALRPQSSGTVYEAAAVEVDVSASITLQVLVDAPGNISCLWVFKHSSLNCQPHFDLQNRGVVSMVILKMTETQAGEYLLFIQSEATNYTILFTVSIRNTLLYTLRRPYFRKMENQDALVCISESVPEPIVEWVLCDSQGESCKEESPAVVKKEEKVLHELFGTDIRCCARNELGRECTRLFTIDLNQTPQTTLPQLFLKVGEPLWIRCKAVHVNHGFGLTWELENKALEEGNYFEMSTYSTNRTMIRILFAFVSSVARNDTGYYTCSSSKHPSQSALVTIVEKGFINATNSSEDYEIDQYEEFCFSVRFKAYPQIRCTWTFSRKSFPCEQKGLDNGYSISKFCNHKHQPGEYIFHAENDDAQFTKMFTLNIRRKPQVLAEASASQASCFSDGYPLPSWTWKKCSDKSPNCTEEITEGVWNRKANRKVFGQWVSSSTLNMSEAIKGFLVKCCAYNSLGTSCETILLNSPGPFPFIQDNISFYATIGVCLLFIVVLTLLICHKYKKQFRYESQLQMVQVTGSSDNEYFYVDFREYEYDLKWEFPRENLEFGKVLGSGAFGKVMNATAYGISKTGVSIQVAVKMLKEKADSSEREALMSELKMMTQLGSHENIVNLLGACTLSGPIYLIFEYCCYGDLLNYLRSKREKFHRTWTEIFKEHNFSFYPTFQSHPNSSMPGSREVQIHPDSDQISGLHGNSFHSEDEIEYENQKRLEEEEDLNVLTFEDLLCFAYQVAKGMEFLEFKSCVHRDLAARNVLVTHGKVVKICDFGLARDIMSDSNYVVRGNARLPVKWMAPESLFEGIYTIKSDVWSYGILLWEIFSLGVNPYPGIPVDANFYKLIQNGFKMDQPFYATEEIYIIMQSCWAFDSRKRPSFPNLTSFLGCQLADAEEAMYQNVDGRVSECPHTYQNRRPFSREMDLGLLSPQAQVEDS
Nature of the assay: HotSpot radiometric kinase assay (Reaction Biology), FLT3. The following applies: 4 nM kinase, substrate ABLtide 20 μM, 33P-ATP, 120 minutes at room temperature. The method in brief:
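Radiometric filter-binding assay with kinase and substrate in HEPES pH 7.5 buffer containing MgCl2, EGTA, Brij35, BSA, Na3VO4, DTT and 1% DMSO, started with ^33P-ATP and run 120 min at room temperature. Phosphorylated substrate on P81 paper counted; activity expressed as % of DMSO control, IC50 from curve fits.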

T2 sequence (Q08345 19-913): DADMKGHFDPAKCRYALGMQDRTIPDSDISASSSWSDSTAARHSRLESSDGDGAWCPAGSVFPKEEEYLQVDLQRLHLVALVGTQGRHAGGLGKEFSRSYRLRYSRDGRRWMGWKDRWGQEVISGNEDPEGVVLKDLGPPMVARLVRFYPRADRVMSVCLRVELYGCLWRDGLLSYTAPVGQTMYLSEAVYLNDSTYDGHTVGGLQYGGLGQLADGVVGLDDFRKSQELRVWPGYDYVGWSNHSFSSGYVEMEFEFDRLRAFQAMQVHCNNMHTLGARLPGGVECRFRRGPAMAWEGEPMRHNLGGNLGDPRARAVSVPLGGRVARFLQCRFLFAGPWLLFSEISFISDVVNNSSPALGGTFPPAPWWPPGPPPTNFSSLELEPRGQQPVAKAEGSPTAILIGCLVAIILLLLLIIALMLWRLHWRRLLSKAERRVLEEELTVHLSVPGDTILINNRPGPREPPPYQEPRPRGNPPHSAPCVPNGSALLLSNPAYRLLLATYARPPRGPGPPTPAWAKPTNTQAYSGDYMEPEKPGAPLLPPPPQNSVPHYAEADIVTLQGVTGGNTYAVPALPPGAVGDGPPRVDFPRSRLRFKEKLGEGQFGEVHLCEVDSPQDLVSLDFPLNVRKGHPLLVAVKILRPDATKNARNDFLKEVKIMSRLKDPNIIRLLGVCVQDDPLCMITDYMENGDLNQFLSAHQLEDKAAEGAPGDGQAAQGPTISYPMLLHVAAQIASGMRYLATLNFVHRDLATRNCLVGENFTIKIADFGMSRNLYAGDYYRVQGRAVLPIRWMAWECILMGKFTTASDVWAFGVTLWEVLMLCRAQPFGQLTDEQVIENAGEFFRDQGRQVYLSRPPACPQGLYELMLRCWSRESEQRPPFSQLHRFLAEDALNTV
T1 sequence (Q9Y4K4 whole entry): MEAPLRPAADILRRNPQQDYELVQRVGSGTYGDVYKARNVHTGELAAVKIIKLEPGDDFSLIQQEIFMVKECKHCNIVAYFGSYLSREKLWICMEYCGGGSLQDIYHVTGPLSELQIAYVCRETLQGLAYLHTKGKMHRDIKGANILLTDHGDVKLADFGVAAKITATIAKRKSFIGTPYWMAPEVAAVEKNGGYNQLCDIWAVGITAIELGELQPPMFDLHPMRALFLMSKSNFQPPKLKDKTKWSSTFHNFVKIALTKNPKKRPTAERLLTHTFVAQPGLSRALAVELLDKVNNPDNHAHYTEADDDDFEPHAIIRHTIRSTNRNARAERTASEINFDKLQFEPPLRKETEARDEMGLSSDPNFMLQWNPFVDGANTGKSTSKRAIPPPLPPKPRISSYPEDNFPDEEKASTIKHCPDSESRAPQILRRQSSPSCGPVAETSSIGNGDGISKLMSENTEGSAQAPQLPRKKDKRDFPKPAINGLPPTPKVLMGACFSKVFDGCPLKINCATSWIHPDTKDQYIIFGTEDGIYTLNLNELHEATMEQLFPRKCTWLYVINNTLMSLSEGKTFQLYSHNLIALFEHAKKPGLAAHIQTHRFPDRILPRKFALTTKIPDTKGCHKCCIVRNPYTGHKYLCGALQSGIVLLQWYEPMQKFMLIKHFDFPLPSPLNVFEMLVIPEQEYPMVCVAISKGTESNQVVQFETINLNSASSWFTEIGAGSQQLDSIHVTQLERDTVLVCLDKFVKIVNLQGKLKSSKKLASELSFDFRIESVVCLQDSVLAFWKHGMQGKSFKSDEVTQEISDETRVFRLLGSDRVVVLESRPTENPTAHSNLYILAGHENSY

As for `CC(c1ccccc1)c1coc2cc(-c3ccc(N4CCN(C)CC4)cc3)cnc12` (racemic) [Preparative Example 203, 1-methyl-4-{4-[3-(1-phenylethyl)furo[3,2-b]pyridin-6-yl]phenyl}piperazine], the IC50 in assay [1] turned out to be 804 nM; in assay [2], 808 nM.

On to `COc1cccc(-c2coc3cc(-c4ccc(N5CCNCC5)cc4)cnc23)c1` [Preparative Example 14, 3-(3-methoxyphenyl)-6-(4-(piperazin-1-yl)phenyl)furo[3,2-b]pyridine], for which the figures for the IC50 in assay [1], in assay [3] and in assay [2] were 906 nM, 49 nM and 116 nM, respectively.

As for `Cn1cc(-c2coc3cc(-c4ccc(N5CCNCC5)cc4)cnc23)cn1` [Preparative Example 34, 3-(1-methyl-1H-pyrazol-4-yl)-6-(4-(piperazin-1-yl)phenyl)furo[3,2-b]pyridine], the values for the half-maximal inhibitory concentration (IC50) in assay [1], in assay [3] and in assay [2] were 433 nM, 100 nM and 64 nM, respectively.

`Fc1ccc(-c2coc3cc(-c4ccc(N5CCNCC5)cc4)cnc23)cc1` [Preparative Example 51, 3-(4-fluorophenyl)-6-(4-(piperazin-1-yl)phenyl)furo[3,2-b]pyridine]: the IC50 was 675 nM in assay [1], 20 nM in assay [3] and 42 nM in assay [2].

For the molecule `CN(C)C(=O)c1cccc(-c2coc3cc(-c4ccc(N5CCNCC5)cc4)cnc23)c1` [Preparative Example 54, N,N-dimethyl-3-(6-(4-(piperazin-1-yl)phenyl)furo[3,2-b]pyridin-3-yl)benzamide], the results for the IC50 in assay [1], in assay [3] and in assay [2] were 538 nM, 207 nM and 301 nM, respectively.

With `CN(C)S(=O)(=O)c1cccc(-c2coc3cc(-c4ccc(N5CCNCC5)cc4)cnc23)c1` [Preparative Example 61, N,N-dimethyl-3-(6-(4-(piperazin-1-yl)phenyl)furo[3,2-b]pyridin-3-yl)benzenesulfonamide], the IC50 was determined as 896 nM in assay [1], 73 nM in assay [3] and 272 nM in assay [2].

For `NCc1cccc(-c2coc3cc(-c4ccc(N5CCNCC5)cc4)cnc23)c1` [Preparative Example 87, (3-(6-(4-(piperazin-1-yl)phenyl)furo[3,2-b]pyridin-3-yl)phenyl)methanamine], the concentration for half-maximal inhibition (IC50) worked out at 456 nM in assay [1], 62 nM in assay [3] and 301 nM in assay [2].

Turning to `CN1CCN(c2ccc(-c3cnc4c(-c5cccc(CO)c5)coc4c3)cc2)CC1` [Preparative Example 90, (3-(6-(4-(4-methylpiperazin-1-yl)phenyl)furo[3,2-b]pyridin-3-yl)phenyl)methanol], the results for the 50% inhibitory concentration (IC50) in assay [1], in assay [3] and in assay [2] were 394 nM, 24 nM and 163 nM, respectively.

As for `CC(=O)OCc1cccc(-c2coc3cc(-c4ccc(N5CCN(C)CC5)cc4)cnc23)c1` [Preparative Example 94, 3-(6-(4-(4-methylpiperazin-1-yl)phenyl)furo[3,2-b]pyridin-3-yl)benzyl acetate], the figures for the IC50 in assay [1], in assay [3] and in assay [2] were 641 nM, 77 nM and 155 nM, respectively.

As for `CNc1cccc(-c2coc3cc(-c4ccc(N5CCN(C)CC5)cc4)cnc23)c1` [Preparative Example 110, N-methyl-3-(6-(4-(4-methylpiperazin-1-yl)phenyl)furo[3,2-b]pyridin-3-yl)aniline], the values for the half-maximal inhibitory concentration (IC50) in assay [1], in assay [3] and in assay [2] were 934 nM, 53 nM and 187 nM, respectively.

As for `c1cc(SC2CCC2)cc(-c2coc3cc(-c4ccc(N5CCNCC5)cc4)cnc23)c1` [Preparative Example 164, 3-(3-(cyclobutylthio)phenyl)-6-(4-(piperazin-1-yl)phenyl)furo[3,2-b]pyridine], the 50% inhibitory concentration (IC50) turned out to be 737 nM in assay [1], 151 nM in assay [3] and 361 nM in assay [2].

Take `CCCc1oc2cc(-c3ccc(N4CCN(C)CC4)cc3)cnc2c1-c1ccccc1` [Preparative Example 200, 1-methyl-4-(4-{3-phenyl-2-propylfuro[3,2-b]pyridin-6-yl}phenyl)piperazine]: the concentration for half-maximal inhibition (IC50) in assay [3] came to 362 nM; in assay [2], 79 nM.

For `Cc1nn(C)cc1-c1coc2cc(-c3ccc(N4CCN(C)CC4)cc3)cnc12` [Preparative Example 216, 1-{4-[3-(1,3-dimethyl-1H-pyrazol-4-yl)furo[3,2-b]pyridin-6-yl]phenyl}-4-methylpiperazine], the values for the IC50 in assay [3] and in assay [2] were 224 nM and 367 nM, respectively.

In the case of `CN1CCN(c2ccc(-c3cnc4c(-c5ccccc5)c(-c5ccncc5)oc4c3)cc2)CC1` [Preparative Example 223, 1-methyl-4-{4-[3-phenyl-2-(pyridin-4-yl)furo[3,2-b]pyridin-6-yl]phenyl}piperazine], the IC50 amounted to 269 nM in assay [3] and 70 nM in assay [2].

For the molecule `CN1CCN(c2ccc(-c3cnc4c(-n5ccnc5)coc4c3)cc2)CC1` [Preparative Example 231, 1-{4-[3-(1H-imidazol-1-yl)furo[3,2-b]pyridin-6-yl]phenyl}-4-methylpiperazine], the IC50 came to 101 nM in assay [3] and 213 nM in assay [2].

`COC(=O)c1cccc(-c2coc3cc(-c4ccc(N5CCN(C)CC5)cc4)cnc23)c1` [Preparative Example 237, methyl 3-{6-[4-(4-methylpiperazin-1-yl)phenyl]furo[3,2-b]pyridin-3-yl}benzoate]: the IC50 in assay [3] was determined as 66 nM; in assay [2], 486 nM.

On to `CONC(=O)c1cccc(-c2coc3cc(-c4ccc(N5CCN(C)CC5)cc4)cnc23)c1` [Preparative Example 238, N-methoxy-3-{6-[4-(4-methylpiperazin-1-yl)phenyl]furo[3,2-b]pyridin-3-yl}benzamide], for which the IC50 in assay [3] turned out to be 22 nM; in assay [2], 77 nM.

Turning to `CN1CCN(c2ccc(-c3cnc4c(-c5ccc(NC(=O)N(C)C)cc5)coc4c3)cc2)CC1` [Preparative Example 253, 3,3-dimethyl-1-(4-{6-[4-(4-methylpiperazin-1-yl)phenyl]furo[3,2-b]pyridin-3-yl}phenyl)urea], the 50% inhibitory concentration (IC50) in assay [1] is 181 nM; in assay [3], 377 nM.

With `COc1ccc(-c2coc3cc(-c4ccc(N5CCN(C)CC5)cc4)cnc23)cc1` [Preparative Example 255, 3-(4-methoxyphenyl)-6-(4-(4-methylpiperazin-1-yl)phenyl)furo[3,2-b]pyridine], the values for the 50% inhibitory concentration (IC50) in assay [3] and in assay [2] were 141 nM and 191 nM, respectively.

Turning to `CN1CCN(c2ccc(-c3cnc4c(-c5ccc(C#N)cc5)coc4c3)cc2)CC1` [Preparative Example 257, 4-(6-(4-(4-methylpiperazin-1-yl)phenyl)furo[3,2-b]pyridin-3-yl)benzonitrile], the half-maximal inhibitory concentration (IC50) in assay [3] was 28 nM; in assay [2], 200 nM.
